The results in this text go back to patent US11192849B2, “Compounds, compositions, and methods for modulating ferroptosis and treating excitotoxic disorders” (THE TRUSTEES OF COLUMBIA UNIVERSITY IN THE CITY OF NEW YORK, priority 2013, dated 2021).

Test [1] deals with rat organotypic hippocampal slice culture (OHSC). As to the kind of experiment: Glutamate excitotoxic injury in organotypic hippocampal slice cultures (PI uptake). As to conditions: 5 mM L-glutamate 3 hours; Fer-1 2 μM, CPX 5 μM, MK-801 10 μM; 24 hours. The format is cell-based. As to the method:
OHSCs were cultured as previously described (Morrison et al., 2002) with approval from Columbia University's Institutional Animal Care and Use Committee (IACUC). Briefly, Sprague Dawley rat pups (P8-P10) were rapidly decapitated, and the hippocampus placed in ice-cold Gey's balanced salt solution (Sigma). 400 μm thick sections were cut using a Mcllwain tissue chopper and immediately plated on Millicell cell culture inserts (Millipore, Billerica, Mass.) in Neurobasal (Invitrogen) media supplemented with B27 (1×, Invitrogen), GlutaMAX (1 mM, Invitrogen), and D-glucose (4.5 mg/mL, Sigma) at 37° C. and 5% CO2. After 2 days in vitro (DIV), the media was changed to medium containing serum comprised of 50% DMEM (Sigma), 25% heat-inactivated horse serum (Sigma), 25% Hank's balanced salt solution (Sigma), GlutaMAX (1 mM, Invitrogen), and D-glucose (4.5 mg/mL, Sigma). Medium was changed every 2-3 days.
After 10-14 DIV, OBSCs were exposed to an excitotoxic injury consisting of a 3 hour exposure to 5 mM L-glutamate in SFM (Morrison et al., 2002). […] After the 3 hour exposure, the cultures were placed in fresh serum free media (SFM) containing 75% DMEM, 25% Hank's balanced salt solution, GlutaMAX (1 mM), D-glucose (4.5 mg/mL) until cell death was quantified at 24 hours. […]
Quantification of cell death has been described previously (Cater et al., 2007; Morrison et al., 2002). […] Percentage cell death was expressed as the number of pixels in the ROI above a threshold in the PI fluorescent image divided by the total number of pixels in the ROI.
OHSCs were treated with a lethal excitotoxic stimulus (5 mM L-glutamate, 3 hours) that mimics the consequences of stroke and neurodegenerative disease (Morrison et al., 2002; Sundstrom et al., 2005) (FIG. 5A). […] The effects of these compound treatments on propidium iodide (PI) uptake were analyzed, as an indicator of cell death, 24 hours following the end of glutamate treatment, in 3 defined regions of the OHSCs: the dentate gyrus (DG), the CA1 and the CA3 fields of the hippocampus.

In another test the test system is HT-1080 cells. As to the kind of experiment: Acridine orange relocalization (lysosomal membrane permeabilization) in HT-1080 cells. Format: cell-based, human. As to conditions: acridine orange re-localization. The procedure:
200,000 HT-1080 cells were seeded into 6-well dishes (Corning). The next day, cells were incubated with 25 ng/mL of AO for 15 minutes, then medium was removed and cells were incubated in growth medium for 15 minutes. […] Relocalization of AO from lysosomes (discrete red puncta) to the cytosol (diffuse green color) was determined using an EVOS fl digital inverted fluorescent microscope (Advanced Microscopy Group) equipped with GFP (ex/em 470/525) and RFP (ex/em 531/593) light cubes.

Regarding `CCOC(=O)c1ccc(NC2CCCCC2)c(N)c1` [SRS8-28 (Fer-1), ethyl 3-amino-4-(cyclohexylamino)benzoate], the “glutamate-induced cell death (PI uptake) in DG, CA1, CA3” value in test [1] is given as “attenuated significantly”. Besides, the “lysosomal membrane destruction in response to H2O2” value in the test with HT-1080 cells is “did not prevent”.
